Test results: patent US20070015823A1, “Ambruticin VS compounds” (priority 2004, published 2007)
In brackets after ≈: the same amount, converted by molar mass. Like-named read-outs stand apart in the source and are kept apart here.

How the values were obtained:
A. flavus ATCC 204304 = assay: Broth microdilution antifungal susceptibility, NCCLS M38-A; type: cell-based, Aspergillus flavus; details: minimal concentration inhibiting >95% growth; average of at least two assays (except I-l and I-x)
A. fumigatus ATCC 204305 = assay: as above; type: cell-based, Aspergillus fumigatus; details: minimal concentration inhibiting >95% growth; average of at least two assays (except I-l and I-x)
Cryptococcus neoformans = assay: as above; details: 50% growth inhibition, range = minimum and maximum of multiple assays; for MIC C. neoformans 97-14: strain 97-14; for MIC C. neoformans 11239: strain 11239; for MIC C. neoformans 11240: strain 11240
Blastomyces dermatitidis = assay: as above; type: cell-based
Histoplasma capsulatum = type: cell-based
C. immitis = assay: microbe, parasite or virus in culture; type: cell-based, Coccidioides immitis
Candida albicans = details: Candida albicans
[1] = system: Trichophyton mentagrophytes; assay: Dermatophyte broth microdilution, NCCLS M38-A; type: cell-based
Microsporum gypseum = assay: Dermatophyte broth microdilution, NCCLS M38-A; type: cell-based
[2] = system: Trichophyton interdigitale; assay: Dermatophyte broth microdilution, NCCLS M38-A; type: cell-based
Epidermophyton floccosum = assay: Dermatophyte broth microdilution, NCCLS M38-A; type: cell-based
Trichophyton rubrum = assay: Dermatophyte broth microdilution, NCCLS M38-A; type: cell-based
Microsporum canis = assay: Dermatophyte broth microdilution, NCCLS M38-A; type: cell-based

Row | Compound | MIC0 A. flavus ATCC 204304 (A. flavus ATCC 204304) | MIC0 A. fumigatus ATCC 204305 (A. fumigatus ATCC 204305) | MIC C. neoformans 97-14 (Cryptococcus neoformans) | MIC C. neoformans 11239 (Cryptococcus neoformans) | MIC C. neoformans 11240 (Cryptococcus neoformans) | other results
1 | CC[C@H]1O[C@@H](/C(C)=C/[C@H](C)/C=C/[C@H]2[C@@H](C)[C@@H]2/C=C/[C@@H]2O[C@H](CC(=O)O)CC(=O)[C@H]2O)CC=C1C [5-keto ambruticin S, (6R)-5-Oxo-6-hydroxypolyangioic acid, reference compound] | 1.0 µg/mL | 2.0 µg/mL | 0.5 µg/mL (≈ 1.06 µM) | 2 µg/mL (≈ 4.23 µM) | 2 µg/mL (≈ 4.23 µM) | –
2 | CC[C@H]1O[C@@H](/C(C)=C/[C@H](C)/C=C/[C@H]2[C@@H](C)[C@@H]2/C=C/[C@@H]2O[C@H](CC(=O)O)C[C@H](NC)[C@H]2O)CC=C1C [Ambruticin VS-4, (5S,6R)-5-(methylamino)-6-hydroxypolyangioic acid, reference compound] | 0.47 µg/mL | 0.60 µg/mL | – | – | – | MIC2 B. dermatitidis 05-106 (Blastomyces dermatitidis): ≦0.15 μg/mL; MIC2 B. dermatitidis 05-186 (Blastomyces dermatitidis): ≦0.15 μg/mL; MIC2 B. dermatitidis 05-1291 (Blastomyces dermatitidis): ≦0.15 μg/mL; MIC2 H. capsulatum 05-959 (Histoplasma capsulatum): ≦0.15 μg/mL; MIC2 H. capsulatum 05-1097 (Histoplasma capsulatum): ≦0.15 μg/mL; MIC2 H. capsulatum 05-1159 (Histoplasma capsulatum): ≦0.15 μg/mL; MIC2 C. immitis 05-469 (C. immitis): ≦0.15 μg/mL; MIC2 C. immitis 05-955 (C. immitis): ≦0.15 μg/mL; MIC2 C. immitis 05-1387 (C. immitis): ≦0.15 μg/mL
3 | CC[C@H](C)C[C@H](C)CCCCCCCCC(=O)N[C@H]1C[C@@H](O)[C@@H](NCCN)NC(=O)[C@@H]2[C@@H](O)CCN2C(=O)[C@H]([C@H](O)CCN)NC(=O)[C@H]([C@H](O)[C@@H](O)c2ccc(O)cc2)NC(=O)[C@@H]2C[C@@H](O)CN2C(=O)[C@H]([C@@H](C)O)NC1=O [Caspofungin, reference compound] | – | – | – | – | – | MIC (Candida albicans; read-out: MIC C. albicans 24433): 2 µg/mL (≈ 1.83 µM); MIC (Candida albicans; read-out: MIC C. albicans 90028): 2 µg/mL (≈ 1.83 µM)
4 | CC[C@H]1O[C@@H](/C(C)=C/[C@H](C)/C=C/[C@H]2[C@@H](C)[C@@H]2/C=C/[C@@H]2O[C@H](CC(=O)O)C[C@H](N(C)CC3CC3)[C@H]2O)CC=C1C [I-b, (5S,6R)-5-(N-cyclopropylmethyl-methylamino)-6-hydroxypolyangioic acid] | 1.5 µg/mL | 1.5 µg/mL | 2 µg/mL (≈ 3.69 µM) | 2 µg/mL (≈ 3.69 µM) | 2 µg/mL (≈ 3.69 µM) | –
5 | CC[C@H]1O[C@@H](/C(C)=C/[C@H](C)/C=C/[C@H]2[C@@H](C)[C@@H]2/C=C/[C@@H]2O[C@H](CC(=O)O)C[C@H](N(C)C3CCCC3)[C@H]2O)CC=C1C [I-c, (5S,6R)-5-(N-cyclopentyl-methylamino)-6-hydroxypolyangioic acid] | 2.0 µg/mL | 2.67 µg/mL | 1 µg/mL (≈ 1.8 µM) | 2 µg/mL (≈ 3.6 µM) | 2 µg/mL (≈ 3.6 µM) | –
6 | CC[C@H]1O[C@@H](/C(C)=C/[C@H](C)/C=C/[C@H]2[C@@H](C)[C@@H]2/C=C/[C@@H]2O[C@H](CCO)C[C@H](NC)[C@H]2O)CC=C1C [I-ee, (5S,6R)-5-(methylamino)polyangi-1,6-diol] | 3 µg/mL | 9.5 µg/mL | 2 µg/mL (≈ 4.22 µM) | 2 µg/mL (≈ 4.22 µM) | 2 µg/mL (≈ 4.22 µM) | –
7 | CC[C@H]1O[C@@H](/C(C)=C/[C@H](C)/C=C/[C@H]2[C@@H](C)[C@@H]2/C=C/[C@@H]2O[C@H](CC(=O)O)C[C@H](N(C)C(C)=O)[C@H]2O)CC=C1C [I-i, (5S,6R)-5-[N-methyl(acetamido)]-6-hydroxypolyangioic acid] | >32 µg/mL | 32 µg/mL | – | – | – | MIC0 Tm [1]: >8 µg/mL; MIC0 Mg (Microsporum gypseum): >8 µg/mL; MIC0 Ti [2]: >8 µg/mL; MIC0 Ef (Epidermophyton floccosum): >8 µg/mL; MIC0 Tr (Trichophyton rubrum): >8 µg/mL; MIC0 Mc (Microsporum canis): >8 µg/mL
8 | CC[C@H]1O[C@@H](/C(C)=C/[C@H](C)/C=C/[C@H]2[C@@H](C)[C@@H]2/C=C/[C@@H]2O[C@H](CC(=O)O)C[C@H](NC(C)C)[C@H]2O)CC=C1C [I-kk, (5S,6R)-5-(isopropylamino)-6-hydroxypolyangioic acid] | 1.1 µg/mL | 1 µg/mL | 0.25 µg/mL (≈ 0.485 µM) | 0.125 µg/mL (≈ 0.242 µM) | 0.0625 µg/mL (≈ 0.121 µM) | MIC B. dermatitidis Gu (Blastomyces dermatitidis): 12.5 µg/mL (≈ 24.2 µM); MIC B. dermatitidis Kr (Blastomyces dermatitidis): >12.5 µg/mL; MIC B. dermatitidis V (Blastomyces dermatitidis): >12.5 µg/mL; MIC H. capsulatum G217B (Histoplasma capsulatum): <0.19 µg/mL; MIC H. capsulatum GS20 (Histoplasma capsulatum): <0.19 µg/mL
9 | CC[C@H]1O[C@@H](/C(C)=C/[C@H](C)/C=C/[C@H]2[C@@H](C)[C@@H]2/C=C/[C@@H]2O[C@H](CC(=O)O)C[C@H](NCCO)[C@H]2O)CC=C1C [I-ll, (5S,6R)-5-[(2-hydroxyethyl)amino]-6-hydroxypolyangioic acid] | 10 µg/mL | 10 µg/mL | 0.5 µg/mL (≈ 0.966 µM) | 1 µg/mL (≈ 1.93 µM) | 0.5 µg/mL (≈ 0.966 µM) | –
10 | CC[C@H]1O[C@@H](/C(C)=C/[C@H](C)/C=C/[C@H]2[C@@H](C)[C@@H]2/C=C/[C@@H]2O[C@H](CCO)C[C@H](N(C)CCO)[C@H]2O)CC=C1C [I-nn, (5S,6R)-5-[N-(2-hydroxyethyl)methylamino]polyangi-1,6-diol] | 4 µg/mL | 32 µg/mL | – | – | – | MIC B. dermatitidis Gu (Blastomyces dermatitidis): >12.5 µg/mL; MIC B. dermatitidis Kr (Blastomyces dermatitidis): >12.5 µg/mL; MIC B. dermatitidis V (Blastomyces dermatitidis): >12.5 µg/mL; MIC H. capsulatum G217B (Histoplasma capsulatum): <0.19 µg/mL; MIC H. capsulatum GS20 (Histoplasma capsulatum): <0.19 µg/mL
11 | CC[C@H]1O[C@@H](/C(C)=C/[C@H](C)/C=C/[C@H]2[C@@H](C)[C@@H]2/C=C/[C@@H]2O[C@H](CCO)C[C@H](N(C)C(C)C)[C@H]2O)CC=C1C [I-oo, (5S,6R)-5-(N-isoproyl-methylamino)polyangi-1,6-diol] | 2 µg/mL | 32 µg/mL | – | – | – | MIC B. dermatitidis Gu (Blastomyces dermatitidis): 0.39 µg/mL (≈ 0.756 µM); MIC B. dermatitidis Kr (Blastomyces dermatitidis): >12.5 µg/mL; MIC B. dermatitidis V (Blastomyces dermatitidis): >12.5 µg/mL; MIC H. capsulatum G217B (Histoplasma capsulatum): <0.19 µg/mL; MIC H. capsulatum GS20 (Histoplasma capsulatum): <0.19 µg/mL
12 | CC[C@H]1O[C@@H](/C(C)=C/[C@H](C)/C=C/[C@H]2[C@@H](C)[C@@H]2/C=C/[C@@H]2O[C@H](CC(=O)O)C[C@H](N(C)Cc3ncc[nH]3)[C@H]2O)CC=C1C [I-y, (5S,6R)-5-(N-(2-imidazolyl)methyl-methylamino)-6-hydroxypolyangioic acid] | 9 µg/mL | 8.5 µg/mL | 0.5 µg/mL (≈ 0.881 µM) | 1 µg/mL (≈ 1.76 µM) | 1 µg/mL (≈ 1.76 µM) | MIC B. dermatitidis Gu (Blastomyces dermatitidis): 3.13 µg/mL (≈ 5.51 µM); MIC B. dermatitidis Kr (Blastomyces dermatitidis): >12.5 µg/mL; MIC B. dermatitidis V (Blastomyces dermatitidis): >12.5 µg/mL; MIC H. capsulatum G217B (Histoplasma capsulatum): <0.19 µg/mL; MIC H. capsulatum GS20 (Histoplasma capsulatum): <0.19 µg/mL; MIC0 Tm [1]: 4.18 µg/mL; MIC0 Mg (Microsporum gypseum): 2.51 µg/mL; MIC0 Tr (Trichophyton rubrum): 3.17 µg/mL; MIC0 Mc (Microsporum canis): 4 µg/mL
13 | CC[C@H]1O[C@@H](/C(C)=C/C/C=C/[C@H]2[C@@H](C)[C@@H]2/C=C/[C@@H]2O[C@H](CC(=O)O)C[C@H](N(C)C)[C@H]2O)CC=C1C [II-a, (5S,6R)-5-dimethylamino-6-hydroxy-15-desmethylpolyangioic acid] | 0.92 µg/mL | 0.6 µg/mL | – | – | – | –
14 | CC[C@H]1O[C@@H](/C(C)=C/C/C=C/[C@H]2[C@@H](C)[C@@H]2/C=C/[C@@H]2O[C@H](CCO)C[C@H](N(C)C)[C@H]2O)CC=C1C [II-b, (5S,6R)-5-dimethylamino-15-desmethylpolyangi-1,6-diol] | 8 µg/mL | 8 µg/mL | – | – | – | –
15 | CC1=CC[C@H](/C(C)=C/[C@H](C)/C=C/[C@H]2[C@@H](C)[C@@H]2/C=C/[C@@H]2O[C@H](CC(=O)O)C[C@H](N(C)C)[C@H]2O)O[C@@H]1C [III-a, 24-norambruticin VS-3] | 1.6 µg/mL | 0.71 µg/mL | – | – | – | –
16 | CC[C@H]1O[C@@H](/C(C)=C/[C@H](C)/C=C/[C@H]2[C@@H](C)[C@@H]2/C=C/[C@@H]2O[C@H](CCO)C[C@H](N(C)C)[C@H]2O)CCC1C (stereo partly drawn) [IV-c] | 2 µg/mL | 2 µg/mL | – | – | – | –
17 | CC[C@H]1O[C@@H](/C(C)=C/[C@H](C)/C=C/[C@H]2[C@@H](C)[C@@H]2/C=C/[C@@H]2O[C@H](CC(=O)O)C[C@H](NC(C)C)[C@H]2O)CCC1C (stereo partly drawn) [IV-d] | 0.88 µg/mL | 2.5 µg/mL | – | – | – | –
18 | (5S,6R,16R,17R)-5-amino-6-hydroxy-16,17-epxoy-16,17-dihydropolyangioic acid [V-c] | 16 µg/mL | 8 µg/mL | – | – | – | –
19 | (5S,6R,16S,17S)-5-amino-6-hydroxy-16,17-epxoy-16,17-dihydropolyangioic acid [V-d] | >32 µg/mL | >32 µg/mL | – | – | – | –
20 | methyl (5S,6R,16R,17R)-5-tert-butoxycarbonylamino-6-hydroxy-16,17-epxoy-16,17-dihydropolyangiate [V-a] | >32 µg/mL | >32 µg/mL | – | – | – | –
21 | methyl (5S,6R,16S,17S)-5-tert-butoxycarbonylamino-6-hydroxy-16,17-epxoy-16,17-dihydropolyangiate [V-b] | >32 µg/mL | >32 µg/mL | – | – | – | –
